# Test results reported in patent publication US10906169B1, “Muscle-powered biological machines” (The Board of Trustees of the University of Illinois, priority 2016, dated 2021).
# Entries after “also recorded” stand apart in the source; their conditions may differ.
# Legend:
# [1] = tested on: MNs in multi-layered tissue rings; assay: Chemical stimulation of motor neurons in multi-layered tissue rings (muscle contraction tracked by video); format: cell-based, mouse; details: for frequency of muscle twitching / average displacement: day 9 after co-culture; for effect on glutamate-induced muscle contractions: 25 μM curare added after glutamate stimulation
# Experimental: To stimulate motor neurons in tissue rings, glutamate was added to cell culture medium in a bath application of either 200 μM or 400 μM, as noted. Tissues were then transferred to fresh medium. After chemical stimulation, the nicotinic AChR antagonist curare was added to cell culture medium in a bath application of 25 μM. Tissues were then rinsed in PBS and transferred to fresh medium.
# Muscle contraction within tissue rings was captured using a digital camera on a stereomicroscope with a capture rate of 5-10 frames s^−1. Image sequences were exported to .avi files. A custom Matlab script was used to calculate x-y displacement of user-specified regions of interest using normalized 2D cross-correlation, as described previously^3.
# On day 9 after co-culture, we chemically stimulated MNs by adding glutamate. Multi-layered tissue rings were first subjected to a bath application of 200 μM glutamate in complete neural differentiation medium. Through video recordings, we observed that local muscle contraction began in response to chemical stimulation of MNs (FIG. 16d). When we increased the glutamate concentration from 200 to 400 μM, the frequency of muscle twitching increased from 1.08 to 1.33 contractions sec^−1, while the average displacement decreased from 6.3±0 to 4.4±0.2 μm per twitch (FIG. 16e).
# [2] = tested on: EBs containing MNs; assay: Neurite growth from embryoid bodies on 2D ECM-coated substrates; format: cell-based, mouse
# Experimental: 4. Neurite Growth Measurements. After day 9 of differentiation, EBs were plated on either collagen I or Matrigel™ coated dishes in complete neural differentiation medium. […] Live samples were imaged on days 10-14 using an inverted fluorescent microscope for 2D cultures (IX81, Olympus) or a confocal microscope for 3D tissue rings (LSM710, Zeiss). The NeuronJ plug-in (ImageScience) for ImageJ was used to measure neurite growth distances (FIG. 17).
# When allowed to adhere to natural ECM substrates such as collagen I13A and Matrigel™ (FIG. 13b and FIG. 19b), EBs containing MNs attached readily and extended neurites across the gels. Neurites grew 417.5±154.8 and 999.1+356.9 μm after 4 days of attachment (propagating at nearly linear rates of 88.6 and 264.8 μm day^−1) on collagen I and Matrigel™ surfaces, respectively (FIG. 13c). Similarly, EBs adhered to (and extended neurites across) the surface of 2D layers of differentiated C2C12s (FIG. 13d and FIG. 19c). After 5 days of co-culture, we identified clusters of post-synaptic acetylcholine receptors (visualized with fluorescently-conjugated α-BTX, which binds to a subunit of AChR) near the termination of neurite extensions on myotubes (FIG. 13e).
compound,measurement,setting,value
"N[C@@H](CCC(=O)O)C(=O)O [glutamate, L-glutamic acid]",frequency of contraction,"[1]; 200 μM glutamate (FIG. 16e, mean values)",1.08 contractions/s
same,frequency of muscle twitching,[1]; 200 μM glutamate bath application,1.08 contractions sec^−1
same,average displacement,[1]; 200 μM glutamate,6.3±0 μm per twitch
same,frequency of contraction,"[1]; 400 μM glutamate (FIG. 16e, mean values)",1.33 contractions/s
same,frequency of muscle twitching,[1]; 400 μM glutamate bath application,1.33 contractions sec^−1
same,average displacement,[1]; 400 μM glutamate,4.4±0.2 μm per twitch
same,dependence of contraction frequency on concentration,"[1]; chemical stimulation of MNs, 200 and 400 μM glutamate",frequency of contraction increasing with glutamate concentration
collagen I: natural ECM substrate; collagen I-coated dishes from Gibco,rate of neurite propagation (nearly linear),"[2]; EBs attached to the coated surface, over 4 days",88.6 μm day^−1
same,neurite growth,[2]; after 4 days of attachment of EBs to the coated surface,417.5±154.8 μm
(+)-tubocurarine chloride hydrochloride pentahydrate [curare],frequency of contraction after addition,[1]; 25 μM curare (FIG. 16e),0 observed contractions
same,effect on glutamate-induced muscle contractions,[1],halted the contractions; also recorded: terminated the contractions
same,effect on glutamate-induced muscle contractions,[1]; listed as tubocurarine chloride (curare),halted the contractions
